Consider 26 molecules from ChEMBL document CHEMBL2163201, “Discovery of novel pyrrolopyridazine scaffolds as transient receptor potential vanilloid (TRPV1) antagonists” (Bioorg Med Chem Lett, 2012).

A short description of data set [1]: Equilibrium solubility of the compound in DMSO preincubated for 4 hrs. Format: physicochemical.
Data set [2] can be described thus: Apparent permeability across apical to basolateral side of human Caco2 cells. Particulars: Caco-2. It is filed as ADME, cell-based.

As a reminder, the solubility is the dissolved amount per volume that the medium holds. A higher solubility goes with much dissolved substance. What is called Papp A→B is how fast a substance crosses the layer from the apical side.

Structures are written as SMILES. Converted amounts (≈) assume the structure as drawn.

As for `CCN(CCO)C(=O)c1nc2ccccn2c1-c1cccc(C(F)(F)F)c1`, in data set [1], the solubility at 4 h was found to be 270 µM (≈ 102 µg/mL). The same measure, in the same setting: the value for `CCN(CCO)C(=O)c1cc2cc(OC)cnn2c1-c1cccc(C(F)(F)F)c1` was 25 µM (≈ 10.2 µg/mL).

Take `COc1cccc(-c2c(C(=O)N3CCCCC3CO)cc3ccccn23)c1` (stereo unspecified): the solubility at 4 h in data set [1] is 260 µM (≈ 94.8 µg/mL). Moreover, the Papp A→B in data set [2] was determined as 580 nm/s.

Molecule `CCN(CCO)C(=O)c1cc2ccccn2c1-c1cccc(OC)n1` had a solubility at 4 h in data set [1] of 190 µM (≈ 64.5 µg/mL). For the same molecule, the apical-to-basolateral permeability (Papp A→B) in data set [2] amounted to 560 nm/s.

In data set [1], `CCN(CCO)C(=O)c1oc2cccnc2c1-c1cccc(C(F)(F)F)c1` displayed a solubility at 4 h of more than 400 µM.

`COc1ccc(-c2c(C(=O)N3CCC[C@H]3CO)cc3cccnn23)cc1` had a solubility at 4 h in data set [1] of more than 400 µM. `CCN(CCO)C(=O)c1cc2cccnn2c1-c1cccc(C(=O)Nc2ccccc2)c1` yielded a solubility at 4 h in data set [1] of 25 µM (≈ 10.7 µg/mL). In other words, the double-digit micromolar range.

`O=C(Cc1cc2cccnn2c1-c1cccc(C(F)(F)F)c1)N1CCC[C@@H]1CO` showed a solubility at 4 h in data set [1] of 220 µM (≈ 88.7 µg/mL). On to `CCN(CCO)C(=O)c1cc2cc(C)cnn2c1-c1cccc(C(F)(F)F)c1`, for which the solubility at 4 h in data set [1] was 190 µM (≈ 74.4 µg/mL). Consider `CCN(CCO)C(=O)c1cc2c(C)ccnn2c1-c1cccc(C(F)(F)F)c1`, for which the concentration in solution in data set [1] (solubility at 4 h) came to 32 µM (≈ 12.5 µg/mL). Molecule `CCN(CCO)C(=O)c1cc2cccnn2c1-c1cccc(C(F)(F)F)c1` returned a solubility at 4 h in data set [1] of 200 µM (≈ 75.5 µg/mL). In addition, the apparent permeability from apical to basolateral (Papp A→B) in data set [2] worked out at 420 nm/s. In the case of `CCN(CCO)C(=O)c1cc2ccc(C)nn2c1-c1cccc(C(F)(F)F)c1`, the solubility at 4 h in data set [1] came out at 28 µM (≈ 11 µg/mL).

The molecule `CCN(Cc1ccn[nH]1)C(=O)c1cc2cccnn2c1-c1cccc(C(F)(F)F)c1` came in with a solubility at 4 h in data set [1] of 150 µM (≈ 62 µg/mL). Against the preceding molecule, the solubility at 4 h is about 5.4-fold higher. On the same count and under the same terms, as for `CCN(CCO)C(=O)c1cc2cccnn2c1-c1cccc(OC)c1`, the figure is 340 µM (≈ 115 µg/mL).

`CCN(CCO)C(=O)c1cc2ccccn2c1-c1cccc(C(F)(F)F)n1` returned a solubility at 4 h in data set [1] of 360 µM (≈ 136 µg/mL). This solubility at 4 h and that of the molecule before are within 1.5-fold of each other. Molecule `CCN(CCO)C(=O)c1cc2cccnn2c1Cc1cccc(C(F)(F)F)c1` gave a solubility at 4 h in data set [1] of 170 µM (≈ 66.5 µg/mL). This solubility at 4 h lies about 2.1-fold lower than the previous one.

As for `CCN(CCO)C(=O)c1cc2ccncn2c1-c1cccc(C(F)(F)F)c1`, in data set [1], the solubility at 4 h was determined as 240 µM (≈ 90.6 µg/mL). As for `CCCN(CCO)C(=O)c1cc2ccccn2c1-c1ccccc1`, in data set [1], the concentration in solution (solubility at 4 h) was 280 µM (≈ 90.3 µg/mL). Also, the Papp A→B in data set [2] was 600 nm/s. The molecule `CCN(CCO)C(=O)c1cc2cccnn2c1-c1cccc(C)c1` gave a solubility at 4 h in data set [1] of 330 µM (≈ 107 µg/mL). As to `CCN(CCO)C(=O)c1cc2cccnn2c1-c1ccc(C(F)(F)F)cc1`, in data set [1], the concentration in solution (solubility at 4 h) was 22 µM (≈ 8.3 µg/mL). For the molecule `CCN(CCO)C(=O)c1cc2cccnc2n1-c1cccc(C(F)(F)F)c1`, the solubility at 4 h in data set [1] is more than 300 µM.

Regarding `CCN(CCO)C(=O)c1cc2ccccn2c1-c1cccc(OC)c1`, the concentration in solution in data set [1] (solubility at 4 h) was 150 µM (≈ 50.8 µg/mL). For the same molecule, the apical-to-basolateral permeability (Papp A→B) in data set [2] amounted to 540 nm/s.

Consider `CCN(CCO)C(=O)c1cc2ccccn2c1-c1cccc(C)c1`, for which the concentration in solution in data set [1] (solubility at 4 h) was 260 µM (≈ 83.8 µg/mL). In data set [1], `N#Cc1cccc(-c2c(C(=O)N3CCCCC3CO)cc3ccccn23)c1` (stereo unspecified) displayed a solubility at 4 h of 250 µM (≈ 89.9 µg/mL). Turning to `O=C(c1cc2cccnn2c1-c1cccc(C(F)(F)F)c1)N1CCC[C@H]1CO`, in data set [1], the concentration in solution (solubility at 4 h) was 360 µM (≈ 140 µg/mL).

`CCN(CCO)C(=O)c1nc2cccnc2n1-c1cccc(C(F)(F)F)c1` registered a solubility at 4 h in data set [1] of 24 µM (≈ 9.08 µg/mL).
